Assay results published in the supplement of paper PMC13380429.

What was measured:
Settings in all cases: 72 h
Caco-2 [1] = experiment: cell viability relative to DMSO; higher = less toxic
U2OS [2] = experiment: as above
Vero E6 [3] = experiment: as above
Calu-3 [4] = experiment: as above
HepG2 [5] = experiment: as above
Caco-2 [6] = experiment: drug sensitivity score (DSS) for viability; higher = more toxic; extreme values may be limits of the assay
U2OS [7] = experiment: as above
Vero E6 [8] = experiment: as above
Calu-3 [9] = experiment: as above
HepG2 [10] = experiment: as above
Caco-2 [11] = experiment: relative viability EC50 (midpoint between 100% and the lowest measured viability); higher = less toxic
U2OS [12] = experiment: as above
Vero E6 [13] = experiment: as above
Calu-3 [14] = experiment: as above
HepG2 [15] = experiment: as above

Structure (SMILES) | cell viability (Caco-2 [1]; 1 nM) | cell viability (Caco-2 [1]; 10 nM) | cell viability (Caco-2 [1]; 100 nM) | cell viability (Caco-2 [1]; 1000 nM) | cell viability (Caco-2 [1]; 10000 nM) | cell viability (U2OS [2]; 1 nM) | cell viability (U2OS [2]; 10 nM) | cell viability (U2OS [2]; 100 nM) | cell viability (U2OS [2]; 1000 nM) | cell viability (U2OS [2]; 10000 nM) | cell viability (Vero E6 [3]; 1 nM) | cell viability (Vero E6 [3]; 10 nM) | cell viability (Vero E6 [3]; 100 nM) | cell viability (Vero E6 [3]; 1000 nM) | cell viability (Vero E6 [3]; 10000 nM) | cell viability (Calu-3 [4]; 1 nM) | cell viability (Calu-3 [4]; 10 nM) | cell viability (Calu-3 [4]; 100 nM) | cell viability (Calu-3 [4]; 1000 nM) | cell viability (Calu-3 [4]; 10000 nM) | cell viability (HepG2 [5]; 1 nM) | cell viability (HepG2 [5]; 10 nM) | cell viability (HepG2 [5]; 100 nM) | cell viability (HepG2 [5]; 1000 nM) | cell viability (HepG2 [5]; 10000 nM) | drug sensitivity score (Caco-2 [6]) | drug sensitivity score (U2OS [7]) | drug sensitivity score (Vero E6 [8]) | drug sensitivity score (Calu-3 [9]) | drug sensitivity score (HepG2 [10]) | relative viability EC50 (Caco-2 [11]) | relative viability EC50 (U2OS [12]) | relative viability EC50 (Vero E6 [13]) | relative viability EC50 (Calu-3 [14]) | relative viability EC50 (HepG2 [15])
CCCC(O)C(CC)CO (stereo not given) [2-ethyl-1,3-hexanediol] | 106% | 88.9% | 101% | 93.9% | 93.3% | 102% | 99.1% | 95.9% | 97.8% | 102% | 95.5% | 102% | 101% | 104% | 75.5% | 105% | 101% | 102% | 94.6% | 103% | 78.7% | 105% | 98.8% | 81.1% | 101% | 0 | 0 | 0.7 | 0 | 0 | > 10 µM | > 10 µM | > 10 µM | > 10 µM | > 10 µM
O=[N+]([O-])c1nccn1CC(O)CN1CCCCC1 (stereo not given) [pimonidazole] | 94.1% | 86.5% | 100% | 87.4% | 102% | 94% | 96.4% | 102% | 95.3% | 106% | 99.1% | 98% | 94.7% | 108% | 106% | 93.6% | 93.2% | 99.9% | 97% | 107% | 95.8% | 111% | 94.9% | 95.4% | 108% | 0 | 0 | 0 | 0 | 0 | > 10 µM | > 10 µM | > 10 µM | > 10 µM | > 10 µM
COc1ccc(-c2ccc3cc(C(=O)O)ccc3c2)cc1C12CC3CC(CC(C3)C1)C2 [adapalene] | 95.3% | 99.6% | 97.6% | 99.4% | 93.3% | 94.5% | 98.2% | 94.6% | 99.4% | 98.4% | 98.1% | 94.6% | 95.4% | 93.3% | 115% | 98.6% | 101% | 101% | 101% | 86.2% | 102% | 96.9% | 109% | 104% | 112% | 0 | 0 | 0 | 0.1 | 0 | > 10 µM | > 10 µM | > 10 µM | > 10 µM | > 10 µM
C/C=C/C=C/C(=O)O [sorbic-acid] | 103% | 93.3% | 106% | 99% | 114% | 99.5% | 98.4% | 94.2% | 102% | 102% | 95.4% | 103% | 96.5% | 94.5% | 102% | 106% | 99.8% | 84.4% | 91.3% | 110% | 87.3% | 97.6% | 90.7% | 107% | 108% | 0 | 0 | 0 | 0 | 0 | > 10 µM | > 10 µM | > 10 µM | > 10 µM | > 10 µM
COc1ccc(-c2coc3cc(O)cc(O)c3c2=O)cc1 [4-methylgenistein] | 98.7% | 98.1% | 105% | 104% | 96% | 99.3% | 94.1% | 99.3% | 98.8% | 97.1% | 94% | 95% | 101% | 88.5% | 102% | 113% | 99% | 101% | 106% | 91% | 106% | 109% | 102% | 92.6% | 95.2% | 0 | 0 | 0 | 0 | 0 | > 10 µM | > 10 µM | > 10 µM | > 10 µM | > 10 µM
OCCOc1ccc(/C(=C(/CCCl)c2ccccc2)c2ccccc2)cc1 [ospemifene] | 103% | 108% | 104% | 91.3% | 78% | 98.4% | 104% | 98.1% | 101% | 93.1% | 97.9% | 102% | 101% | 99.9% | 94.2% | 96.7% | 103% | 106% | 96.6% | 101% | 99.5% | 97% | 103% | 107% | 106% | 1.7 | 0 | 0 | 0 | 0 | > 10 µM | > 10 µM | > 10 µM | > 10 µM | > 10 µM
C=CC[C@]1(O)CC[C@H]2[C@@H]3CCC4=CCCC[C@@H]4[C@H]3CC[C@@]21C [allylestrenol] | 107% | 102% | 112% | 102% | 88.8% | 94.6% | 98.1% | 94.8% | 99.4% | 99.5% | 102% | 91.5% | 106% | 103% | 97.7% | 98% | 108% | 116% | 104% | 106% | 105% | 104% | 108% | 105% | 98.3% | 0 | 0 | 0 | 0 | 0 | > 10 µM | > 10 µM | > 10 µM | > 10 µM | > 10 µM
Cc1ncc(-c2csc(N=C(N)N)n2)[nH]1 [zaltidine] | 101% | 99% | 92.3% | 92.5% | 109% | 104% | 97.9% | 97.8% | 104% | 106% | 99.6% | 92.6% | 87.3% | 94.2% | 107% | 108% | 96% | 99.2% | 103% | 103% | 105% | 105% | 101% | 94.5% | 107% | 0 | 0 | 0 | 0 | 0 | > 10 µM | > 10 µM | > 10 µM | > 10 µM | > 10 µM
CNC(=O)c1c(C)oc2cc(Oc3ncnc4cc(OC)c(OC)cc34)ccc12 [fruquintinib] | 90% | 97.4% | 97.8% | 98.9% | 94.7% | 102% | 104% | 102% | 102% | 90.8% | 96.1% | 93.4% | 102% | 94.5% | 91.6% | 103% | 103% | 98.7% | 107% | 98.8% | 107% | 109% | 100% | 86.5% | 103% | 0 | 0 | 0 | 0 | 0 | > 10 µM | > 10 µM | > 10 µM | > 10 µM | > 10 µM
Clc1ccc(C(c2ccccc2Cl)C(Cl)Cl)cc1 (stereo not given) [mitotane] | 100% | 90.7% | 97.9% | 99.4% | 91.9% | 98.5% | 93.2% | 98.6% | 97.7% | 97.7% | 106% | 96.6% | 101% | 101% | 97.6% | 92.8% | 102% | 89.1% | 97.1% | 99.6% | 89.9% | 89.9% | 87.9% | 85.4% | 94.6% | 0 | 0 | 0 | 0 | 0 | > 10 µM | > 10 µM | > 10 µM | > 10 µM | > 10 µM
COc1ccccc1N1CCN(CCN2C(=O)CC3(CCCC3)CC2=O)CC1 [BMY-7378] | 89% | 93.9% | 97.5% | 97.3% | 103% | 93.5% | 100% | 96.3% | 95.8% | 102% | 97.3% | 95.6% | 99.9% | 90.1% | 106% | 92.7% | 95.2% | 109% | 110% | 106% | 106% | 102% | 105% | 98.4% | 108% | 0 | 0 | 0 | 0 | 0 | > 10 µM | > 10 µM | > 10 µM | > 10 µM | > 10 µM
Cc1cc(C)n(-c2cccc([C@H](CC(=O)O)CN3CC[C@@H](CCc4ccc5c(n4)NCCC5)C3)c2)n1 [integrin-antagonist-1] | 104% | 102% | 94.4% | 99% | 105% | 104% | 95.6% | 104% | 103% | 97.2% | 99.2% | 102% | 105% | 95% | 99.1% | 92.1% | 98% | 101% | 96.6% | 98.4% | 107% | 97.8% | 104% | 97.8% | 99.9% | 0 | 0 | 0 | 0 | 0 | > 10 µM | > 10 µM | > 10 µM | > 10 µM | > 10 µM
C[C@@H]([C@@H](O)c1ccc(O)cc1)N1CCC(O)(c2ccccc2)CC1 [traxoprodil] | 100% | 100% | 92.6% | 99.8% | 97% | 100% | 100% | 96.1% | 110% | 101% | 98.2% | 95.3% | 95.7% | 100% | 98.7% | 98.9% | 94.3% | 93.3% | 109% | 108% | 98.1% | 91.4% | 104% | 107% | 101% | 0 | 0 | 0 | 0 | 0 | > 10 µM | > 10 µM | > 10 µM | > 10 µM | > 10 µM
C=CCc1ccc(O)c(-c2cc(CC=C)ccc2O)c1 [magnolol] | 104% | 95.3% | 88.6% | 102% | 89.5% | 96.7% | 102% | 99.2% | 102% | 95.3% | 98.6% | 98.3% | 98.9% | 101% | 94.8% | 99.3% | 90.3% | 90.3% | 99.4% | 110% | 97.8% | 85.7% | 97.8% | 102% | 106% | 0 | 0 | 0 | 0 | 0 | > 10 µM | > 10 µM | > 10 µM | > 10 µM | > 10 µM
